The target of data set [1] is dsDNA GATA6-AF488/GATA6-AF647. Kind of data set: fEMSA with dsDNA. It counts as binding. How it is done:
(§1) Basic residues, 3 Arg and 2 Lys, were incorporated for nucleic acid recognition. […] Similar results were obtained from two independent experiments. FIG. 8C (left panels) show photon bursts distribution of dsDNAs alone (GATA6-AF488 and GATA6-AF647; top) or with 7.5 μM (0.03 mg/mL) 1-4wRK peptide (bottom). Middle panels of FIG. 8C show FCCS curves for corresponding photon fluctuations shown in the left panels. […] Similar results were obtained from three independent experiments. […] Similar results were obtained from three independent experiments. […] Error bars were calculated from three independent measurements. […] Similar results were obtained from two independent experiments.
(§2) ThT binding to amyloid β-sheet emits maximally at ˜490 nm. Similar results were obtained from 2 independent experiments. […] Similar results were obtained from 2 independent experiments.
(§3) Applicant observed nucleic acid interactions by fluorescence electrophoretic mobility shift assays (fEMSA). […] Moreover, the 1-4wRK peptide was also potent in recognizing single stranded DNA (ssDNA (TG)6) and RNA (ssRNA (UUAGGG)4-AF488/AF594).
(§4) By EMSA, almost all DNAs were bound at […] or 0.03 mg/mL 1-3wRRK. […] This was further corroborated by fluorescence polarization measurements.

Data set [2] deals with ssDNA (TG)6 and ssRNA (UUAGGG)4-AF488/AF594. Briefly: fEMSA with single stranded nucleic acids. Format: binding. The following applies: immobilized in the gel wells. How it is done: as §1, §3
In data set [3] the test system is GATA6-AF488 and GATA6-AF647. Briefly: FCCS DNA bridging by peptides. Format: binding. How it is done:
as §1
ThT binding to amyloid β-sheet emits maximally at ˜490 nm. Similar results were obtained from 2 independent experiments. […]
Applicant also tested the minipeptides' ability to bring together independent DNA molecules in solution. Using Fluorescence Cross-Correlation Spectroscopy (FCCS), Applicant observed an absence of cross-correlation between differentially fluorescently labeled DNAs (GATA6-AF488 and GATA6-AF647) without the peptide. […]
The significant 1-3wRK DNA-bridging competency was further confirmed by FCCS titration data and burst analysis, where Applicant observed cross-correlation even at ˜30 nM 1-3wRRK. […] Applicant demarcated the LLPS regimes using turbidity assay (UV absorbance at 350 nm; FIG. 8J). […]

Data set [4] deals with fluorescent proteins h6GeGFP and h6GmCherry. Briefly: Co-partitioning with fluorescent proteins. The following applies: h6GeGFP and h6GmCherry 5 μM. The procedure: as §1
Applicant used burst analysis to quantify sizes of the oligomeric species. The average fluctuations were assumed to represent monomeric species, and any degree of deviations from average were characterized as the oligomeric states. Applicant observed numerous heterogeneous oligomeric states that increased in molecular sizes with increasing peptide concentration (FIGS. 8D-8E). Because NANOG is also known as a ‘molecular hub’ protein capable of interactions with many proteins with its WR domain, Applicant tested whether the WR peptide mimetics could non-specifically recruit random proteins (e.g., fluorescent proteins h6GeGFP and h6GmCherry for convenient visualization). […]

Another data set concerns GATA6 dsDNA. Briefly: Fluorescence polarization binding measurements. The note with it: Hill binding equation, mean±SD.
Source text: as §2
Since 1-3wRRK became soluble and much less aggregation-prone on its own, Applicant determined if the WR repeat (steric zipper region) was affected by changes in physical properties and still contributed towards recognizing DNA. Applicant compared its DNA binding capability to TAT and 1-4wRK by EMSA and fluorescence polarization measurements (FIGS. 9G-9H). Applicant observed that 1-3wRRK binds DNA more effectively than 1-4wRK, mostly likely due to the extra basic residues (FIGS. 8B, 9G, and 9H).
as §4
(Fluorescence polarisation rises when a labelled molecule tumbles more slowly, as on binding a larger partner.)

Another data set concerns DNA. Briefly: LLPS turbidity assay (UV absorbance at 350 nm). Format: physicochemical. How it is done:
as §2
The significant 1-3wRK DNA-bridging competency was further confirmed by FCCS titration data and burst analysis, where Applicant observed cross-correlation even at ˜30 nM 1-3wRRK. Applicant next investigated whether the peptides' ability to form nano-assemblies also correlated with their capacity to drive mesoscale condensates. Applicant demarcated the LLPS regimes using turbidity assay (UV absorbance at 350 nm; FIG. 8J). The LLPS data (presented in mg/mL concentration unit in FIG. 8J) reflected the behaviors observed at nanoscale level.

For data set [5], the system named is Gata6-AF488 and Gata6-AF647 DNA. Kind of data set: Intermolecular diffusion smFRET DNA bridging. It counts as binding. The note with it: 250 nM NANOG WT. How it is done: (§5) FIGS. 6A-6G provide data related to intermolecular DNA bridging through NANOG assemblies. […] The peak at EFRET ˜0 corresponds to AF488-conjugated unbound/bound DNA. FIGS. 6E1-4 show representative cross-correlation FCCS curves of Gata6-AF488 and Gata6-AF647 with various concentrations of WT ((i) 0 nM; (ii) 63 nM; (iii) 875 nM) and W8A mutant ((iv) 875 nM). […] Nad and diffusion coefficients were derived and calculated from FCCS fits (Methods). […] Through prion-like assembly, NANOG can initiate intragenomic (promoter-enhancer) contacts, as well as connecting distant intergenomic loci to form superenhancer clusters with other TFs and coactivators (green/yellow).
To test the DNA bridging hypothesis, Applicant performed single molecule FRET (smFRET) diffusion experiments. Intermolecular diffusion smFRET is challenging due to low chance encounters at dilute pM concentrations. Gata6 DNAs were independently labeled with AF488 or AF647. […] However, in the presence of 250 nM NANOG WT.

Data set [6] has the same test system. Briefly: FCCS DNA bridging by NANOG. Format: binding. The procedure: as §5
To further validate NANOG-dependent DNA bridging, Applicant resorted to fluorescence cross-correlation technique (FCCS). Binding of individual DNAs (differentially labeled with AF488 and AF647) to form a complex would result in correlated fluorescence signals.
FCCS experiments with various NANOG concentrations confirmed cross-correlation with as little as ˜30 nM WT NANOG (FIG. 6F). The increase in cross-correlated particles coincided with a decrease in molecular complex diffusion coefficient (bright lower line, FIG. 6F). Without being bound by theory, the decrease in cross-correlated particles at high NANOG concentrations may reflect competition for DNA with excess NANOG.

Like-named read-outs stand apart in the source and are kept apart here.

Turning to WSNQTWNNSTWSNQTQNIQSWSNHSRRRKK [1-4wRK], in data set [1] (fEMSA, read-out: dsDNA affinity (50% free DNA)), the Kd is about 1000 nM. The “peptide concentration giving completely bound peptide:nucleic acid complexes” value in data set [2] lay within 60 to 250 nM. Moreover, the “cross-correlation (DNA bridging)” value in data set [3] (0.9 μM peptides) is reported as “small degree of cross-correlation”. In data set [3] (FCCS titration), the “lowest peptide concentration giving cross-correlation” value turned out to be 1 µM. For the same substance, in data set [4], the “peptide concentration giving visible precipitates of fluorescent proteins” value is listed as about 0.3 mg/mL. Moreover, in the data set on GATA6 dsDNA, the cooperativity n was 3.3±1.2. Besides, the “binding constant Ka” value at GATA6 dsDNA (n=3) turned out to be 340 ± 110 nM. The “aggregation without DNA” value in the data set on DNA (0.2 mg/mL peptide) was “aggregates even without DNA”. Also, the “potency in driving DNA:peptide LLPS” value with DNA (turbidity Abs350 nm>0.07 = LLPS positive) was “more effective than TAT at higher concentrations of DNA”.

NANOG WT: the “proximity of separate DNAs” value in data set [5] is recorded as at most 70 Å. For the same substance, in data set [6], the “cross-correlation of differentially labeled DNAs” value is “significant cross-correlation” and the “lowest concentration giving cross-correlation” value was about 30 nM. Further, in data set [1] (full-length NANOG, for comparison, read-out: dsDNA affinity), the Kd was 30 to 60 nM.
